Measured values published in PubChem BioAssay (NCI).
“And” between values parts separate entries of the source, which are not always exact repeats. Equal entries are not always repeated.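 Growth conditions: 96-well plates. Treatment: test compound, 48 hours, 5 concentrations. Analysis: linear interpolation between bracketing concentrations; unreached endpoints set to highest concentration. GI50 is the concentration that inhibits growth by half. TGI is the concentration that stops growth completely.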

Key:
Test in all cases: growth of human tumour cells (NCI), 48 h
[1] = system: HT29 colon
[2] = system: CAKI-1 renal
[3] = system: OVCAR-4 ovarian
[4] = system: ACHN renal
[5] = system: SW-620 colon
[6] = system: MALME-3M melanoma
[7] = system: M14 melanoma
[8] = system: NCI-H23 lung
[9] = system: OVCAR-5 ovarian
[10] = system: NCI-H522 lung
[11] = system: OVCAR-8 ovarian
[12] = system: MOLT-4 leukemia
[13] = system: LXFL 529 NSCLC
[14] = system: NCI-H226 lung
[15] = system: SK-MEL-2 melanoma
[16] = system: SK-OV-3 ovarian
[17] = system: KM12 colon
[18] = system: HCT-116 colon
[19] = system: SK-MEL-28 melanoma
[20] = system: U251 CNS
[21] = system: K-562 leukemia
[22] = system: LOX IMVI melanoma
[23] = system: HL-60(TB) leukemia
[24] = system: EKVX NSCLC
[25] = system: XF 498 CNS
[26] = system: SF-268 CNS
[27] = system: M19-MEL melanoma
[28] = system: SNB-78 CNS
[29] = system: DMS 273 small cell lung
[30] = system: SF-295 CNS
[31] = system: DMS 114 small cell lung
[32] = system: CCRF-CEM leukemia
[33] = system: UACC-62 melanoma
[34] = system: SK-MEL-5 melanoma
[35] = system: SNB-19 CNS
[36] = system: RXF 393 renal
[37] = system: SN12C renal
[38] = system: 786-0 renal
[39] = system: DLD-1 colon
[40] = system: HCC-2998 colon
[41] = system: A498 renal
[42] = system: IGROV1 ovarian
[43] = system: COLO 205 colon
[44] = system: TK-10 renal
[45] = system: OVCAR-3 ovarian
[46] = system: UO-31 renal
[47] = system: SNB-75 CNS
[48] = system: HOP-62 NSCLC
[49] = system: HCT-15 colon
[50] = system: UACC-257 melanoma
[51] = system: NCI-H460 lung
[52] = system: A549 NSCLC
[53] = system: HOP-92 NSCLC
[54] = system: RPMI-8226 leukemia
[55] = system: KM20L2 colon
[56] = system: SF-539 CNS

## CC(C)=CCSC1CC2C(CC1(C)O)C2(C)C (stereo unspecified)
[1]
  TGI: 29 µM and 28.2 µM
[2]
  TGI: 28.3 µM and 25.5 µM
[3]
  TGI: 35 µM and 29.2 µM
[4]
  TGI: 31 µM and 31.3 µM
[5]
  TGI: 35.1 µM and 33.3 µM
[6]
  TGI: 31.2 µM and 30.4 µM
[7]
  TGI: 32 µM and 27.9 µM
[8]
  TGI: 29.8 µM and 25 µM
[9]
  TGI: 28.2 µM and 30.1 µM
[10]
  GI50: 13.3 µM and 4.38 µM
  TGI: 26.9 µM and 18.8 µM
[11]
  TGI: 34.3 µM and 27.1 µM
[12]
  TGI: 40.9 µM and 67.5 µM
[13]
  TGI: 31.7 µM and 27.1 µM
[14]
  TGI: 27.5 µM
[15]
  GI50: 22.8 µM and 10.2 µM
  TGI: 44.5 µM and 24.7 µM
[16]
  TGI: 28.2 µM and 29.7 µM
[17]
  TGI: 35.7 µM and 27.7 µM
[18]
  TGI: 33.5 µM and 28.7 µM
[19]
  TGI: 31.3 µM and 30.7 µM
[20]
  TGI: 28.5 µM and 27.1 µM
[21]
  GI50: 28.2 µM and 10.1 µM
  TGI: 80.1 µM and 29.6 µM
[22]
  TGI: 29.7 µM
[23]
  GI50: 34.1 µM and 3.82 µM
  TGI: > 100 µM and 19.7 µM
[24]
  TGI: 28.3 µM and 31.4 µM
[25]
  TGI: 18 µM and 16.6 µM
[26]
  TGI: 34.9 µM and 29.8 µM
[27]
  GI50: 1.86 µM and 4.26 µM
  TGI: 3.31 µM and 19.3 µM
[28]
  TGI: 41.2 µM and 26.3 µM
[29]
  TGI: 29.9 µM and 21.5 µM
[30]
  TGI: 55.9 µM and 35.2 µM
[31]
  TGI: 30.7 µM and 21.7 µM
[32]
  GI50: 26 µM and 12.8 µM
  TGI: > 100 µM and 38.7 µM
[33]
  TGI: 29.2 µM and 31.7 µM
[34]
  GI50: 14.7 µM and 6.59 µM
  TGI: 28.5 µM and 20.1 µM
[35]
  TGI: 34.2 µM and 31.8 µM
[36]
  GI50: 2.01 µM and 14.9 µM
  TGI: 11.2 µM and 28.4 µM
[37]
  TGI: 32 µM and 29.6 µM
[38]
  TGI: 29.6 µM and 25.8 µM
[39]
  TGI: 33.4 µM and 27.4 µM
[40]
  TGI: 3.27 µM and 18.6 µM
[41]
  TGI: 31.4 µM and 36.2 µM
[42]
  TGI: 31.3 µM and 33 µM
[43]
  TGI: 32.5 µM and 30.8 µM
[44]
  TGI: 32.3 µM and 30.8 µM
[45]
  TGI: 31.2 µM and 23.6 µM
[46]
  GI50: 14.4 µM and 6.12 µM
  TGI: 28.2 µM and 20.8 µM
[47]
  TGI: 30.1 µM and 23.7 µM
[48]
  TGI: 31.8 µM and 31.2 µM
[49]
  TGI: 31.4 µM and 29.6 µM
[50]
  GI50: 18.3 µM and 7.13 µM
  TGI: 32.6 µM and 20.6 µM
[51]
  TGI: 33.7 µM and 27.2 µM
[52]
  TGI: 24.1 µM and 30.2 µM
[53]
  TGI: 30.4 µM and 27 µM
[54]
  TGI: 48.5 µM and 61.6 µM
[55]
  TGI: 30.8 µM and 34.9 µM
[56]
  TGI: 32.3 µM and 29.6 µM
